{"source": "paper PMC2903893", "about": "(Journal of the American Chemical Society, 2009)", "key": {"PKC": {"tested_on": "PKC", "details": "read-out: PKC IC50, cited from earlier work"}, "PPK": {"tested_on": "PPK", "details": "read-out: PPK IC50; cited from earlier work"}, "[1]": {"type": "physicochemical", "details": "65 °C"}, "JHU-012 Head&Neck": {"tested_on": "JHU-012 Head&Neck", "experiment": "Cancer cell growth inhibition with and without light, JHU-012", "type": "cell-based", "details": "JHU-012, with vs without light exposure"}, "protein kinase C (PKC)": {"target": "protein kinase C (PKC)", "type": "biochemical", "details": "read-out: PKC IC50; whole enzyme with regulatory and catalytic domains"}, "nine cancer cell lines": {"tested_on": "nine cancer cell lines", "experiment": "cells", "type": "cell-based"}, "PKA": {"tested_on": "PKA", "details": "read-out: PKA IC50; cited from earlier work"}, "[2]": {"details": "cited from earlier work"}, "[3]": {"experiment": "Absorption of the perylenequinone chromophore", "type": "physicochemical"}, "PKCβII": {"tested_on": "PKCβII", "details": "read-out: PKCβII IC50; ref 29 (ruboxistaurin), 30 (enzastaurin); cited from earlier work"}, "PKCβI": {"tested_on": "PKCβI", "details": "read-out: PKCβI IC50; ref 29 (ruboxistaurin), 30 (enzastaurin); cited from earlier work"}}, "note": "Read-outs that look alike come from different tables or passages of the source."}
{"compound": "COc1c(CC(C)O)c2c3c(CC(C)O)c(OC)c(=O)c4c(O)cc5c(c6c(cc(O)c(c1=O)c62)OCO5)c43", "note": "(stereo not shown) [compound 3, Cercosporin]", "values": [{"measurement": "IC50", "setting": "PPK", "value": "> 180000", "unit": "nM"}, {"measurement": "ΔG^‡ atropisomerization", "setting": "[1]; DMSO", "value": 28.2, "unit": "kcal/mol"}, {"measurement": "ΔG^‡ atropisomerization", "setting": "[1]; benzene", "value": "27.4 (benzene) kcal/mol"}, {"measurement": "ΔG^‡ atropisomerization", "setting": "[1]; benzene, listed as cercosporin", "value": 27.4, "unit": "kcal/mol"}, {"measurement": "photopotentiation", "setting": "JHU-012 Head&Neck", "value": 4.9, "unit": "fold"}, {"measurement": "IC50", "setting": "protein kinase C (PKC)", "value": 600, "unit": "nM"}, {"measurement": "CC50", "setting": "nine cancer cell lines; read-out: CC50 across the series of cell lines", "value": "120 to 270", "unit": "nM"}, {"measurement": "IC50", "setting": "PKA", "value": "> 500000", "unit": "nM"}, {"measurement": "atropisomerization t1/2", "setting": "[2]; 60 °C, DMSO", "value": 48, "unit": "h"}, {"measurement": "ΔG^‡ atropisomerization", "setting": "[2]; acetylacetone", "value": "27.0[5] (acetylacetone) kcal/mol"}, {"measurement": "ε^670", "setting": "[3]", "value": 160, "unit": "M⁻¹ cm⁻¹"}, {"measurement": "IC50", "setting": "PKC", "value": "600 to 1300", "unit": "nM"}]}
{"compound": "CN(C)C[C@@H]1CCn2cc(c3ccccc32)C2=C(C(=O)NC2=O)c2cn(c3ccccc23)CCO1", "note": "[ruboxistaurin]", "values": [{"measurement": "IC50", "setting": "PKCβII", "value": "[…]"}, {"measurement": "IC50", "setting": "PKCβI", "value": 4.7, "unit": "nM"}]}
{"compound": "Hypocrellin [ent-4]", "values": [{"measurement": "IC50", "setting": "protein kinase C (PKC)", "value": 400, "unit": "nM"}]}
{"compound": "COc1c(O)c2c(=O)cc(OC)c3c4c(OC)cc(=O)c5c(O)c(OC)c(CC(C)O)c(c(c1CC(C)O)c23)c54", "note": "(single isomer, unassigned; (-)) [(−)-1, Calphostin D]", "values": [{"measurement": "IC50", "setting": "PKC; Table 3 footnote a, ref [23]", "value": 6400, "unit": "nM"}]}
{"compound": "COc1c(C[C@@H](C)OC(=O)Oc2ccc(O)cc2)c2c3c(C[C@@H](C)OC(=O)c4ccccc4)c(OC)c(=O)c4c(O)cc(OC)c(c5c(OC)cc(O)c(c1=O)c52)c43", "note": "[1c, Calphostin C, reference compound]", "values": [{"measurement": "IC50", "setting": "PPK", "value": "> 100000", "unit": "nM"}, {"measurement": "IC50", "setting": "PKA", "value": "> 100000", "unit": "nM"}, {"measurement": "IC50", "setting": "PKC", "value": "50 to 460", "unit": "nM"}]}
{"compound": "Cn1cc(C2=C(c3cn(C4CCN(Cc5ccccn5)CC4)c4ccccc34)C(=O)NC2=O)c2ccccc21", "note": "[enzastaurin]", "values": [{"measurement": "IC50", "setting": "PKCβII", "value": 30, "unit": "nM"}, {"measurement": "IC50", "setting": "PKCβI", "value": 30, "unit": "nM"}]}
{"compound": "COc1c(O)c2c(=O)cc(OC)c3c4c(OC)cc(=O)c5c(O)c(OC)c(CC(C)OC(=O)c6ccccc6)c(c(c1CC(C)OC(=O)c1ccccc1)c23)c54", "note": "(stereo not shown) [1a, calphostin A]", "values": [{"measurement": "IC50", "setting": "PKC; ref 22b", "value": 250, "unit": "nM"}]}
{"compound": "COc1c2c3c4c(c(OC)c(=O)c5c(O)cc(OC)c(c6c(OC)cc(O)c(c1=O)c63)c54)[C@@H](C(C)=O)[C@@](C)(O)C2", "note": "[compound 4, Hypocrellin A]", "values": [{"measurement": "IC50", "setting": "protein kinase C (PKC)", "value": 4500, "unit": "nM"}, {"measurement": "growth inhibition, hypocrellin A (4) compared with hypocrellin (ent-4)", "setting": "nine cancer cell lines", "value": "nearly identical activity"}]}
